Source: patent EP0569777A2 (Bayer Corporation, priority 1992, dated 1993)
Entries after “also recorded” stand apart in the source; their conditions may differ. Where a SMILES comes first, the peptide text is derived from it. [ ]: non-standard residue; d: D form. The star is where a group is joined. Sta = CC(C)C[C@H](N)[C@@H](O)CC(=O)O; Isovaleryl = CC(C)CC(=O)*

What was measured:
Assay type in all cases: biochemical
[1] = system: human AD brain fraction P2 V APP degrading activity; assay: Immunoblot assay of APP 695 degradation by Mono-Q pool P2 V; details: 11.5 kDa fragment, trial A,B, Pepstatin A 400µM (methanolic), pH 6.5, 24 hrs, 37°C
Experimental: ii) Solubilization. The membranous control or AD subfractions (P-2 or M) were solubilized by adjusting to the following conditions: 2% (v/v) Triton X-100 containing 50 mM Tris HCl buffer, pH 7.5. After stirring at 4°C for 3.5 hrs, the suspensions were centrifuged at 105,000 g x 60 min in a Beckman 70 Ti rotor. The following final protein concentrations were used in solubilization, for P-2 (3.9 to 4.0 mg/ml); and for M (1.4 to 1.6 mg/ml). Solubilized supernatants were stored at -70°C for later use. The soluble fraction was not treated with detergent but rather was adjusted to 50 mM in Tris HCl, pH 7.5, by the addition of stock 1M buffer. iii) Ion-exchange chromatography. Chromatography was performed using a Gilson gradient liquid chromatograph (model 305 and 306 pumps) equipped with a 50 ml Rheodyne stainless steel loop injector model 7125, and connected to a Mono Q HR 10/10 column (Pharmacia, Piscataway, NJ). Absorbance of column effluent was monitored at 280 nm using a Pharmacia UV-M detector and a Kippen-zonen chart recorder. […] In the initial studies, eluted fractions were monitored for A280 nm, total protein (Bradford assay), and peptidase activity (as decsribed in Examples 2 and 3). […] Fractions were monitored for A 280 nm, total protein (Bradford assay), peptidase activity, and activity for C-terminal processing of recombinant APP. […]

[2] = target: human cathepsin D (human liver, Cal Biochem, catalog # 219401) (Homo sapiens, UniProt P07339); assay: Immunoblot assay of holo-APP 695 degradation by purified cathepsin D
Experimental: The numbers indicate the time (hr) after initiation of reactions. Reactions were initiated at 37°C by the addition of APP to achieve the following initial component concentrations: APP (82 nM), cathepsin D (9.2 ug/ml),in […] Mes buffer pH 6.5. Samples without pepstatin received the same amount of solvent (1.3 % v/v methanol). At t=0, 43, 84, 140 and 215 minutes aliquots (15 ul) were removed mixed with 7.5 ul of SDS-PAGE sample buffer and subject to immunoblot analysis using the Rabbit antiserum to the APP C-terminal domain. The 18 and 28 kDa reaction products are located with arrows.
Reactions were initiated at 37°C by APP addition thereby achieving the following initial component concentrations: APP (448 nM), cathepsin D (30 nM), and when included pepstatin A (97.2 µm) in 83 mM sodium acetate buffer pH 5.0. At the indicated time points, aliquots (20 ul), were removed mixed with 10 ul of 3X SDSPAGE sample buffer and subjected to immunoblot analysis using monoclonal antibody 286.8A (1/100). Reactions were performed in the absence (-) or presence (+) of pepstatin A (delivered in methanol). All samples received 2.7 % (v/v) methanol. Lanes 1 and 12 contained prestained Mr markers, Lanes 10 and 18 contained C-100 Mr marker. Lanes 11 and 13 contained APP incubated without cathepsin D for zero and 21hr respectively. The main product fragments are indicated with arrows. […]

[3] = system: human brain P-2 derived aprotinin binding pool Y protease (chymotryptic-like serine protease); assay: Immunoblot assay of APP degradation by the pool Y serine protease; details: 400 uM pepstatin in methanol; pool Y 14 ug/ml, APP 35 nM, Mes pH 6.5, 4 hr; Figure 18a
Experimental: Reactions were initiated at 37°C by enzyme addition to achieve the following initial component concentrations in a 16 ul volume: pool Y # 3-5 (14 ug/ml) after purification on a superdex 75 column, APP (35 nM), in 30 mM Mes buffer pH 6.5. Reactions were terminated by addition of 7.5 ul of 3X sample buffer. Immunoblots were developed using the rabbit antiserum to the APP C-terminal domain according to example 8. […] The following controls were also run: no inhibitor (lane 12), ethanol (lane 3), methanol (lane 5), pool Y only (lane 2), APP only at time zero (lane 13) and 4 hr (lane 14). Lanes 1 and 7 respectively show prestained Mr markers and the C-100 standard. Panel (b) 1.8 uM alpha-1-antichymotrypsin (lane 2), 156 uM TLCK (lane 3), 46 uM chymotrypsin inhibitor I (lane 4), 119 uM chymotrypsin inhibitor II (lane 5), 4 uM alpha-2-antiplasmin (lane 6), 51 uM alpha-1-antitrypsin (lane 7), 98 uM chymostatin administered in DMSO (lane 10), 153 uM methanolic TPCK (lane 12). Controls included: no inhibitor (lane 8), DMSO (lane 11), and methanol (lane 13). Pre-stained molecular weight markers and C-100 standards were applied to lanes 1 and 9 respectively. Incubation times of 4 and 2 hr were used in panels a) and b) respectively.
• i) Sub-cellular fractionation. This was performed essentially as described in Method 1, above. • ii) Solubilization. This was performed essentially as described in Method 1, above. • iii) Aprotinin-sepharose chromatography. Soluble (230 mg), P-2 (216 mg) or microsomal fraction (47 mg) described above was applied to a column of aprotinin sepharose (Sigma, catalog # 42268, 1.5 X 10 cm), previously equilibrated with 20 mM Tris HCl buffer pH 7.0. Once loaded the column was washed with equilibration buffer (100 ml), and then eluted with 60 ml of 50 mM sodium acetate buffer pH 5.0 containing 500 mM sodium chloride. The flow rate was 1.0 ml/min throughout. Eluted fractions (4 ml) were monitored at 280 nm, analysed using the Bradford protein assay, and examined for APP C-terminal processing activity as described in Example 8, using recombinant APP derived by expression in a baculo virus system. […] Active fractions from the purification of the P-2 fraction on aprotinin-sepharose were pooled, dialyzed against 50 mM Tris-HCl pH 7.5 and applied to a mono-Q column (HR 5/5), previously equilibrated with dialysis buffer. Once loaded, the column was eluted essentially as described in Method 1. above. Active fractions (2 ml), were monitored for A 280 nm, total protein (Bradford assay), and for their capacity for baculo virus derived APP C-terminal processing. […] Pools X, Y, and Z were each concentrated to either 2 ml (pool X and Y) or 3.6 ml (pool z) and separately applied to a Superdex 75 column (Pharmacia, Piscataway NJ.) previously equilibrated with 50 mM Tris-HCl pH 7.5, containing 150 mM sodium chloride. Once loaded, the column was eluted with equilibration buffer. Chromatography was performed at a flow rate of 1.0 ml/min throughout. Fractions (1 ml) were monitored for A 280 nm, total protein (Bradford assay) and for C-terminal processing of baculo expressed APP. The gel filtration was calibrated by chromatography of each of the following standard proteins: Thyroglobulin (670 kDa), bovine gamma globulin (158 kDa), ovalbumin (44 kDa), myoglobin (17.5 kDa) and vitamin B 12 (1.35 kDa).

Sequence of human cathepsin D (human liver, Cal Biochem, catalog # 219401) (P07339 with tags, fused parts or gaps): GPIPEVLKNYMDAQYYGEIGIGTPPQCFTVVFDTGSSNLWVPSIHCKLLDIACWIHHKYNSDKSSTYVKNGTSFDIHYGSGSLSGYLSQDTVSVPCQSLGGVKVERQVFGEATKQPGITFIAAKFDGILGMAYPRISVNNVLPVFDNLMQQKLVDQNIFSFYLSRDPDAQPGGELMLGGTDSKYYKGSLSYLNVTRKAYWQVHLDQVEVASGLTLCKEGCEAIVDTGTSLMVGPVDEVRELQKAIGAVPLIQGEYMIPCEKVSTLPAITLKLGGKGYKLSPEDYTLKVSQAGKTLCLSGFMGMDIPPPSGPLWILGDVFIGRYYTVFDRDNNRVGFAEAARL

## CC(C)CC(=O)N[C@H](C(=O)N[C@H](C(=O)N[C@@H](CC(C)C)[C@@H](O)CC(=O)N[C@@H](C)C(=O)N[C@@H](CC(C)C)[C@@H](O)CC(=O)O)C(C)C)C(C)C [pepstatin A] (Isovaleryl-VV[Sta]A[Sta]-OH)
[1]
  Inhibitors (pH 6.5): compounds causing complete inhibition are listed: completely; also recorded: pepstatin A aprotinin
[2]; 86 uM pepstatin A, APP 82 nM, cathepsin D 9.2 ug/ml, Mes buffer pH 6.5, 37°C, Figure 8
  Inhibition of cathepsin D catalysed APP cleavage (18 and 28 kDa C-terminal products): Inhibition
[2]; pepstatin A 97.2 µm, APP 448 nM, cathepsin D 30 nM, sodium acetate buffer pH 5.0, 37°C
  Inhibition of cathepsin D catalysed APP degradation (beta-amyloid immunoreactive bands, Figure 13): inhibited
[3]
  Inhibitor sensitivity of the pool Y protease (APP degradation): unaffected
